The test system of data set [1] is methicillin resistant Staphylococcus aureus K24. The experiment in a line: Enhancing effect for activity of imipenem by paper disk method. The format is cell-based. To be noted: 10 μg disc, 37° C. for 20 hours; for inhibitory zone in the presence of imipenem: MHA medium with imipenem final concentration 10 μg/ml; for inhibitory zone, substance alone: MHA medium without imipenem. The procedure:
Biological properties of compound of stemphones of the present invention are described in detail as follows. Method for evaluation of enhancing effect for activity of imipenem by paper disk method
Clinically isolated strain of methicillin resistant Staphylococcus aureus K24 was used as a test organism. Staphylococcus aureus was cultured in Mueller-Hinton broth (2.1% w/v) (DIFCO) at 37° C. for 20 hours, and was suspended corresponding to 0.5 Mc FARLAND (about 10^8 CFU/ml) in the same medium.
Smearing was performed by using sterilized cotton swab (Kawamoto Sangyo K.K., Japan) according to a method of National Committee for Laboratory Standard, NCCLS, U.S.A. Antibacterial activities against test organism on various media were expressed with a unit in mm of a diameter of inhibition zone after incubation with the paper disc (thin disc, […], ADVANTEC Inc.) method at 37° C. for 20 hours.

The next data set concerns Jurkat cells. Description: Cytotoxicity on Jurkat cells by MTT method. The format is cell-based. To be noted: Homo sapiens, 48 hours. How it is done:
Method for Evaluation of Cytotoxicity
Evaluation of cytotoxicity on Jurkat cells were performed by MTT method (Mosmaan, et al. J. Immunol. Methods, 65: 55-63, 1983). Cultured liquid of Jurkat cells were suspended in RPMI-1640 medium (Iwaki & Co., Ltd., Japan) to give suspension with 4×10^5 cells/ml, and the suspension 0.05 ml was seeded in each well of 96 well microplate (Corning Corp.). Subsequently, stemphone D substance, stemphone E substance, stemphone E1 substance, stemphone E2 substance, stemphone E3 substance or stemphone F substance (0.05 ml, 2% methanol/PRMI-1640 medium) was added and incubated at 37° C. for 48 hours in 5% carbon dioxide gas incubator. Then MTT reagent (SIGMA Inc.) dissolved in PBS to give concentration 5.5 mg/ml, 0.01 ml was added and reacted at 37° C. for 4 hours. After the reaction was performed, cell-lysing solution (40%, N-dimethylformamide (Kanto Chemical Co., Inc., Japan), 20% sodiumdodecyl sulfate (Wako Pure Chemical Industries, Ltd., Japan) 2% acetic acid (Kanto Chemical Co., Inc., Japan), 0.03% hydrochloric acid (Kanto Chemical Co., Inc., Japan) in purified water) 0.09 ml was added, and stirred at room temperature for 2 hours, then absorption at 550 nm was measured by using ELx 808 (BIO-TEK Instruments Inc.). As compared with stemphone C substance previously reported by the present inventor (ratio: 1.0), about 4-fold to 60-fold reduction of toxicity were confirmed.
(In general: Tetrazolium dyes change colour on reduction, which living cells bring about.)

The nature of the next data set: Solubility in solvent. The format is physicochemical.

Converted amounts (≈) assume the structure as drawn.

The IC50 is the concentration needed to halve the response being measured. A higher IC50 goes with lower potency.

For the molecule `C/C=C(\C)C(OC(C)=O)C(C)c1cc(O)c2c(c1O)OC1(C)CCC3OC(C(C)(C)O)CC(O)C3(C)C1C2O` (stereo not drawn) [stemphone E substance], in data set [1], the “inhibitory zone in the presence of imipenem” value (“inhibitory zone … of imipenem” for short) was 22 mm and the “inhibitory zone, substance alone” value is recorded as “not observed”. This molecule also showed an IC50 in the data set on Jurkat cells of 3.6 µg/mL (≈ 6.56 µM). Moreover, in the data set “Solubility in solvent”, the “Solubility in methanol and chloroform” value is reported as “Soluble”; the Solubility in water entry is “insoluble”.

In the case of `C/C=C(\C)C(OC(C)=O)C(C)C1=CC(=O)C2=C(OC3(C)CCC4OC(C(C)(C)O)CC(O)C4(C)C3C2)C1=O` (stereo not drawn) [stemphone D substance], in data set [1], the “inhibitory zone … of imipenem” value came out at 25 mm and the “inhibitory zone, substance alone” value was “not observed”. In the data set on Jurkat cells, this molecule returned an IC50 of 1.8 µg/mL (≈ 3.39 µM). Further, in “Solubility in solvent”, the “Solubility in methanol and chloroform” value is “Soluble”; the Solubility in water result is “insoluble”.

For `C/C=C(\C)C(OC(C)=O)C(C)C1=CC(=O)C2=C(OC3(C)CCC4OC(C(C)(C)O)CC(O)C4(C)C3C2O)C1(O)CC(C)=O` (stereo not drawn) [stemphone F substance], in data set [1], the “inhibitory zone … of imipenem” value was 20 mm and the “inhibitory zone, substance alone” value was “not observed”. This molecule gave a concentration for half-maximal inhibition (IC50) in the data set with Jurkat cells of 2.7 µg/mL (≈ 4.46 µM). Also, in the data set “Solubility in solvent”, the “Solubility in methanol and chloroform” value was “Soluble”; the Solubility in water result is given as “insoluble”.

For `C/C=C(\C)C(OC(C)=O)C(C)c1cc(O)c2c(c1O)OC1(C)CCC3OC(C(C)(C)O)CC(O)C3(C)C1=C2` (stereo not drawn) [stemphone E2 substance], in data set [1], the “inhibitory zone … of imipenem” value stood at 22 mm and the “inhibitory zone, substance alone” value is recorded as “not observed”. Also, the IC50 in the data set on Jurkat cells was 4.4 µg/mL (≈ 8.29 µM). In “Solubility in solvent”, the “Solubility in methanol and chloroform” value is reported as “Soluble”; the Solubility in water result was “insoluble”.

Turning to `C/C=C(\C)C(OC(C)=O)C(C)c1cc(OC)c2c(c1O)OC1(C)CCC3OC(C(C)(C)O)CC(O)C3(C)C1C2O` (stereo not drawn) [stemphone E1 substance], in data set [1], the “inhibitory zone … of imipenem” value is listed as 15 mm and the “inhibitory zone, substance alone” value is listed as “not observed”. For the same molecule, the IC50 with Jurkat cells was 26.2 µg/mL (≈ 46.6 µM). Also, in the data set “Solubility in solvent”, the “Solubility in methanol and chloroform” value is listed as “Soluble”; the Solubility in water result is listed as “insoluble”.

Consider `C/C=C(\C)C(OC(C)=O)C(C)C1=CC(=O)C2=C(OC3(C)CCC4OC(C(C)(C)O)CC(O)C4(C)C3=C2)C1=O` (stereo not drawn) [stemphone E3 substance], for which, in data set [1], the “inhibitory zone … of imipenem” value is 20 mm and the “inhibitory zone, substance alone” value is reported as “not observed”. The molecule further had an IC50 with Jurkat cells of 2.6 µg/mL (≈ 4.92 µM). In “Solubility in solvent”, the “Solubility in methanol and chloroform” value is recorded as “Soluble”; the Solubility in water result is “insoluble”.

The record behind these values is patent US7982057B2, “Compound of stemphones and production thereof” (The Kitasato Institute, priority 2006, dated 2011).
